Structures can show the parent of a compound that is named as a salt.
How the values were obtained:
HCT116 [1] = assay: AC50 cell viability (CellTiter-Glo); higher = less potent; details: 48 h
HCT116 [2] = assay: efficacy (fitted maximal change in viability relative to DMSO control); higher = less cytotoxic (negative = loss of viability); details: 48 h
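Wherever AC50 cell viability (CellTiter-Glo) is given: HCT116 colorectal carcinoma cells screened at five concentrations per compound, luminescent viability scaled between DMSO wells and empty wells on each plate, curves fitted per compound.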
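Wherever efficacy (fitted maximal change in viability relative to DMSO control) is given: Luminescence-based viability readout, five doses per compound, normalized against on-plate DMSO and empty-well controls, followed by dose-response curve fitting for every drug.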

Structure (SMILES)	AC50 cell viability (HCT116 [1]) [µM]	efficacy (HCT116 [2]) [%]
NC(=O)N1CCC(CC(=O)N2CCC([C@H]3c4ncc(Br)cc4CCc4cc(Cl)cc(Br)c43)CC2)CC1 [Lonafarnib]	18.6	-100
CN(C)C(=O)C(CCN1CCC(O)(c2ccc(Cl)cc2)CC1)(c1ccccc1)c1ccccc1 [Loperamide hydrochloride]	18.6	-98.7
CC1Oc2cc(cnc2N)-c2c(nn(C)c2C#N)CN(C)C(=O)c2ccc(F)cc21 (centres undefined) [Lorlatinib]	14.8	-46.2
C[C@H]1Oc2cc(cnc2N)-c2c(nn(C)c2C#N)CN(C)C(=O)c2ccc(F)cc21 [Lorlatinib]	0.372	-33.7
CCN(CC)CCNc1ccc(C)c2sc3ccccc3c(=O)c12 [Lucanthone]	14.8	-119
CNC(=O)c1cccc2cc(Oc3ccnc4cc(OCC5(N)CC5)c(OC)cc34)ccc12 [Lucitanib]	14.8	-96.6
COc1ccc2[nH]c3c(c2c1)CCN[C@]31CS[C@@H]2c3c(OC(C)=O)c(C)c4c(c3[C@H](COC1=O)N1[C@@H]2[C@H]2c3c(cc(C)c(OC)c3O)C[C@@H]([C@@H]1O)N2C)OCO4 [Lurbinectedin]	0.00539	-72.4
NC(=O)c1cccc2c(NC(CN3CCC3)c3ccc(Cl)c(C(F)(F)F)c3)ncnc12 (centres undefined) [M2698]	10.5	-116
CCCCOC(=O)N[S+](=O)([O-])c1sc(CC(C)C)cc1-c1ccc(Cn2ccnc2)cc1 [M-024]	18.6	-84.4
CN(C)c1ccc(C(=O)NCCCCCCC(=O)NO)cc1 [M-344]	0.742	-84.5
Cn1cc(/C=C/C(=O)c2cccc(F)c2)cc1/C=C/C(=O)NO [MC-1568]	14.8	-49.8
CC1(N2CCC(n3c([C@@H]4CCCNC4)nc4ccccc43)CC2)CCCCCCC1 [MCOPPB]	9.34	-82.3
OC(c1cc(C(F)(F)F)nc2c(C(F)(F)F)cccc12)C1CCCCN1 (centres undefined) [MEFLOQUINE]	20.9	-109
CCC[C@@H](C=O)NC(=O)[C@H](CC(C)C)NC(=O)[C@H](CC(C)C)NC(=O)OCc1ccccc1 [MG-115]	0.661	-93.3
CC(C)C[C@@H](C=O)NC(=O)[C@H](CC(C)C)NC(=O)[C@H](CC(C)C)NC(=O)OCc1ccccc1 [MG-132]	0.468	-89.4
CCCCCCCc1ccc(CCc2cccc(O)c2C(=O)O)cc1 [MG-149]	18.6	-42.3
Cn1cnc(-c2cc3nccc(Oc4ccc(NC(=S)NC(=O)Cc5ccccc5)cc4F)c3s2)c1 [MGCD-265]	16.6	-59.3
COCCOc1nc(-c2ccc(Cl)c(Cl)c2)n(-c2ccc(NC(=O)CCl)cc2)n1 [MI-2]	18.6	-63.7
Cc1c(CN2CCC(Nc3ncnc4sc(CC(F)(F)F)cc34)CC2)ccc2c1cc(C#N)n2Cc1cn[nH]c1 [MI-503]	3.72	-76

Structure (SMILES)	AC50 cell viability (HCT116 [1]) [µM]	efficacy (HCT116 [2]) [%]
N#Cc1cc2cc(CN3CCC(Nc4ncnc5sc(CC(F)(F)F)cc45)CC3)c(O)cc2n1Cc1cn[nH]c1 [MI-538]	13.2	-111
CN1CCN(c2ccc3nc(-c4cc(C(C)(C)C)c(OCCCC(=O)NCCCN=[N+]=[N-])c(C(C)(C)C)c4)[nH]c3c2)CC1 [MIR96-IN-1]	8.33	-98.9
CC(C)(C)Sc1c(CC(C)(C)C(=O)O)n(Cc2ccc(Cl)cc2)c2ccc(OCc3ccc4ccccc4n3)cc12 [MK591]	20.9	-88.4
CC(C)c1ccc2c(c1)c(SC(C)(C)C)c(CC(C)(C)C(=O)[O-])n2Cc1ccc(Cl)cc1 [MK-886]	20.9	-83.3
C=CCn1c(=O)c2cnc(Nc3ccc(N4CCN(C)CC4)cc3)nc2n1-c1cccc(C(C)(C)O)n1 [MK-1775]	0.742	-73.8
NC1(CCC1)C2=CC=C(C=C2)C3=C(C=C/4C(=N3)\C=C/N5C(=O)N\N=C45)C6=CC=CC=C6 [MK-2206]	16.6	-122
CN(C[C@@H]1COCCO1)[S+]([O-])(=O)NC2=CC3=C(C=C2)\C=C/C4=C(C=C(C=N4)C5=C[N](C)N=C5)C3=O [MK-2461]	18.6	-103
O=C(O)C1(Cc2cccc(Nc3nccs3)n2)CCC(Oc2cccc(Cl)c2F)CC1 (centres undefined) [MK-5108]	0.833	-34.3
C[N]1C=C(C=N1)C2=CN=C3\C=C/C4=CC=C(C[S+]([O-])(=O)NCC5=NC=CC=C5)C=C4C(=O)C3=C2 [MK-8033]	16.6	-65.9
Cn1cc(-c2cnn3c(N)c(Br)c(C4CCCNC4)nc23)cn1 (centres undefined) [MK-8776]	10.5	-113
C[N]1C=C(C2=CC=CC=C12)/C3=C(/C(=O)NC3=O)C4=C[N](C)C5=CC(=CC=C45)[N+]([O-])=O [MKC-1]	1.86	-87.5
CCC1CCCCN1C(=O)n1ncc(C(O)(c2ccccc2)c2ccccc2)n1 (centres undefined) [ML226]	11.8	-62.9
CN(C(=O)CNC(=O)/C=C/c1cccc(Cl)c1)C1CC[S+](=O)([O-])CC1 (centres undefined) [ML264]	0.742	-92.4
Cc1cnc(-c2ccccc2C(C)C)nc1NCc1ccc(-n2ccnn2)cc1 [ML323]	0.118	-34.2
CN(C)CCCNC(=O)c1ccc(-c2cc(O)c3ncccc3c2)cc1 [ML324]	14.8	-86.4
O=C(NCCCNC(=O)c1cccnc1O)c1cc(-c2ccccc2)on1 [ML327]	8.33	-62.3
c1ccc(-c2ccc(CNc3nc(-c4ccccn4)nnc3-c3ccccc3)cc2)cc1 [ML-228]	1.48	-77
Cc1ccc([S+](=O)([O-])Nc2cc(C(F)(F)F)ccc2C(=O)Nc2nc(-c3ccccc3)cs2)cc1 [ML-364]	4.17	-87
O=C(CCNC(=O)c1ccc(OC(F)(F)F)cc1)N[C@@H]1CCCc2ccccc21 [ML-390]	0.742	-57.7

Structure (SMILES)	AC50 cell viability (HCT116 [1]) [µM]	efficacy (HCT116 [2]) [%]
C[C@@H](NC(=O)c1ncnc(N)c1Cl)c1ncc(C(=O)Nc2cc(C(F)(F)F)c(Cl)cn2)s1 [MLN 2480]	13.2	-95.4
N[S+](=O)([O-])OC[C@@H]1C[C@@H](n2ccc3c(N[C@H]4CCc5ccccc54)ncnc32)C[C@@H]1O [MLN-4924]	0.235	-65.7
OC(=O)C1=CC=C(NC2=NC3=C(C\N=C(/C4=CC(=CC=C34)Cl)C5=C(F)C=CC=C5F)C=N2)C=C1 [MLN-8054]	0.332	-38.3
Cn1cc(-c2ccncc2)c(-c2ccc(OCc3ccc4ccccc4n3)cc2)n1 [MP-10]	18.6	-72.4
COc1cc(N2CCC(O)CC2)ccc1Nc1cc(Nc2ccccc2[S+](=O)([O-])C(C)C)c2cc[nH]c2n1 [MPS1-IN-1]	3.72	-73
COc1ccc([S+](=O)([O-])N2CCc3cccc(-c4ccncc4)c32)cc1 [MPT-0B098]	0.417	-61.1
COc1cc(C(=O)NC(=N)Nc2ccc(C)c(NC(=O)c3ccc(-c4ccccc4)cc3)c2)cc(OC)c1OC [MRT-83]	7.42	-47.2
COc1ccc([C@@H](O)[C@@H](C)Oc2ccc([C@H]3O[C@H](c4ccc(O[C@H](C)[C@H](O)c5ccc(OC)c(OC)c5)c(OC)c4)[C@H](C)[C@H]3C)cc2OC)cc1OC [Manassantin A]	0.372	-81
CNCCCC12CCC(c3ccccc31)c1ccccc12 [Maprotiline hydrochloride]	20.9	-93.9
CNC(=O)[C@@H](NC(=O)[C@H](CC(C)C)[C@H](O)C(=O)NO)C(C)(C)C [Marimastat]	20.9	-54.3
C[C@@]12OC(=O)[C@@]1(NC(=O)[C@@H]2CCCl)[C@@H](O)[C@H]\3CCC\C=C3 [Marizomib]	0.118	-92.6
CN(Cc1ccc(/C=C/C(=O)NO)cc1)CC12CC3CC(CC(C3)C1)C2 [Martinostat]	0.263	-89.7
Cc1ccc(NC(=O)c2ccc(CN3CCN(C)CC3)cc2)cc1Nc1nc(-c2cccnc2)cs1 [Masitinib]	18.6	-99.1
C[C@H](Cc1ccc(O)c(O)c1)[C@@H](C)Cc1ccc(O)c(O)c1 [Masoprocol]	18.6	-46.2
Cc1cccc(CN2CCN(C(c3ccccc3)c3ccc(Cl)cc3)CC2)c1 (centres undefined) [Meclizine hydrochloride]	20.9	-43.1
CCN(CC)CCNC(=O)c1ccc2nc(-c3ccccc3)c(-c3ccc(CN4CCC(n5c(=O)[nH]c6ccccc65)CC4)cc3)nc2c1 [Merck-22-6]	8.33	-99.8
C[N]1N=CC2=C1C=C(C(=C2)OC3=CC=C(NC(=O)\C4=C\C=C(\C)N(C4=O)C5=CC=C(F)C=C5)C=C3F)C6=C[NH]N=C6 [Merestinib]	3.32	-41.2
CN(Cc1cnc2nc(N)nc(N)c2n1)c1ccc(C(=O)N[C@@H](CCC(=O)O)C(=O)O)cc1 [Methotrexate]	0.118	-84.4
CN(C)C1=CC=C(C=C1)C(C2=CC=C(C=C2)N(C)C)=C/3\C=C/C(/C=C3)=[N+](C)C [Methylrosaniline chloride]	0.833	-84.9

From the supplement of paper PMC10290057
